“Also recorded” adds a separate entry of the source.
Legend:
[1] = PAP accumulation in leaves after petiole feeding; assay type: in vivo, Arabidopsis; conditions: petiole feeding of PAP for 1 h, alone or co-applied with LiCl or ATP
Description: (§1) Five- to six-week-old plants were used to prepare epidermal peels. ABA at a concentration of 20 μM in water was root fed to hydroponically grown plants or sprayed onto leaves using a Studio Series IS-875 with a 0.5 mm nozzle opening (Iwata). We investigated if PAP accumulation in the double mutants could affect the production of NO during ABA-induced stomatal closure by treating epidermal peels with the inhibitor of NO synthase N(G)-methyl-L-arginine (NMA). For the investigation of the effect of different chemicals on stomatal closure, 20 μM ABA (Sigma-Aldrich), 100 mM LiCl, or 1 mM ATP, 1 mM or 100 μM PAP (Sigma-Aldrich) alone or in different combinations were prepared in infiltration buffer (1 mM PIPES KOH pH 6.0, 1 mM Sodium citrate, 1 mM KCl, 15 mM Sucrose) modified from a cordycepin infiltration buffer.
Total adenosines were extracted with 0.1 M HCl, derivatization with chloroacetaldehyde and quantified fluorometrically after HPLC fractionation. 3′-phosphoadenosine 5′-phosphate (PAP) quantification was performed by integrating the HPLC peak area and converting these to pmol units using standard curves of 1, 5 and 10 pmol standard.

stomata [2] = assay: Stomatal aperture in epidermal leaf peels; assay type: cell-based, Arabidopsis
Description: as §1
Measurements of stomatal aperture were performed with epidermal strips taken from five- to six-week-old plants. Fully developed leaves were cut and placed with their adaxial side onto cello tape. The vein was removed by razor blade and the abaxial epidermis was subsequently peeled off by using another strip of cello tape. To promote stomatal opening, the peels left adhered to the Scotch (810D Magic Tape, ¾ inch, 3M) were placed in petri dishes filled with stomatal opening solution (10 mM MES, 5 mM KCl, 50 μM CaCl2, pH 6.5) and incubated for 2 h at 22° C. under 150-200 μmol photons m^−2 s^−1 of light. Once the stomata were fully open, strips were maintained in the opening buffer or treated with various compounds according to the experiment. After treatment, photographs of stomata were taken using Leica microscope (Leica Microsystems, Wetzlar, Germany) at 20×. Stomatal aperture was measured using the image-processing software ImageJ. For stomatal aperture measurements, the ratio of stomatal pore width and length was used instead of width as this normalizes the pores of stomata of different size. Small stomata with a stomatal pore length of less than 7.5 μm were discarded. For each data point, 90 stomata were measured in 3 independent experiments. In each experiment, 10 stomata were measured in 3 epidermal strips per sample per treatment.
(§2) Measurements of stomatal closure in response to ABA, PAP, cordycepin and ATP treatments were performed on epidermal strips from Arabidopsis and barley plants grown under specific conditions. Plants were grown under high humidity (approximately 80% RH) and 12 h/12 h and 22/20° C. light/dark cycle in a growth chamber. Epidermal peels of newly expanding true leaves of three to four-week old plants. Stomatal apertures were measured in epidermal peels of newly expanded leaves. Peels were taken from the abaxial leaf surface and were fixed to the glass bottom of the experimental chamber after coating the chamber surface with an optically clear and pressure-sensitive silicon adhesive (Factor II, Tucson, USA). The attached epidermal peel is subsequently immersed in an opening buffer (OB: 50 mM KCl, 5 mM MES titrated to pH 6.1 with NaOH) and incubated, at plant growth conditions, for approximately 2 h. Stomatal images were taken using a bright-field microscope capable of 400× magnification for 10 minutes in OB and subsequently in Measuring Buffer [MB: 10 mM KCl, 5 mM MES titrated to pH 6.1 with Ca(OH)2] or PAP or cordycepin or ABA (dissolved in MB) for another 50 min. In total this was a 60 minute time course and images of the epidermal section were taken every 5 minutes using NIS Elements software (Nikon, Japan). Stomata aperture width and length were measured using Image J (NIH, USA). The pore area of each stomate was calculated using these values under the assumption that the area of a stomatal pore was that of an ellipse. Data are expressed as percentage over the control.

seeds = assay: Seed germination assay; assay type: in vivo, Arabidopsis
Description: Seeds used for germination assays were 3-months-old and all from seed stocks produced and harvested from plants grown under identical conditions at the same time. Seeds were sterilized and grown on 0.8% (w/v) agar plates containing Murashige-Skoog (MS) nutrients and 2% (w/v) sucrose. Different combinations of 0, 1 μM ABA, 0, 0.5 μM paclobutrazol and/or 0, 100, 500 and 1000 μM PAP were supplemented into the media using the infiltration buffer. At least 70-100 seeds from each genotype were plated on the same plate for efficient comparison. The seeds were stratified at 4° C. in the dark for 48 h before transfer to a growth cabinet and grown at 22° C. under 24-h light (100 μmol photons m^−2 s^−1) unless stated otherwise. The germination was scored after 3 days as the emergence of the radicle through the seed coat and the germination rate was calculated as the percentage of the total number of seeds per treatment with five replicates for each treatment. The experiment was repeated twice and statistical analyses are described below.

stomata [3] = assay: Stomatal aperture in barley leaf epidermal peels; assay type: cell-based; conditions: exogenous PAP 100 μM
Description: as §2, with “Stomatal images were taken using a bright-field microscope capable of 400× magnification for 10 minutes in OB and subsequently in Measuring Buffer [MB: 10 mM KCl, 5 mM MES titrated to pH 6.1 with Ca(OH)2] or PAP or cordycepin or ABA (dissolved in MB) for another 50 min. In total this was a 60 minute time course and images of the epidermal section were taken every 5 minutes using NIS Elements software (Nikon, Japan).” left out

guard cells [4] = assay: Ion fluxes (K+, Cl- and Ca2+) in guard cells; assay type: cell-based, Arabidopsis; conditions: wild type, ost1-2, alx8 and ost1-2 alx8
guard cells [5] = assay: ROS accumulation in guard cells of epidermal peels; assay type: cell-based, Arabidopsis; conditions: wild type, ost1-2 and ost1-2 alx8
Description: The ABA- and PAP-induced accumulation of ROS in guard cells of epidermal peels was measured using dichlorofluorescein diacetate (H2DCFDA, Invitrogen). After 2 h of incubation in OB, the epidermal peel was incubated with 20 μM dye dissolved in DMSO and MB for 30 min, and then rinsed with MB three times. Epidermal peels were incubated in ABA or PAP dissolved in MB (or MB only as a negative control) for 10 min. Fluorescence images were taken using a Leica inverted confocal microscope controlled by the LAS AF software (Leica Microsystems, Germany). We used the 496-nm excitation line of an argon multiline laser. H2DCFDA fluorescence emission was detected at 505 to 525 nm. Chloroplast fluorescence was detected at 680 to 700 nm in order to separate the autofluorescence of chlorophyll in guard cells. Images were quantified with Image J software (National Institutes of Health, USA). The background signal was measured from the empty region of the similar size and subtracted from the stomata signal to obtain corrected total stomatal fluorescence values. Each stomate was considered to represent a single biological unit and thus fluorescence values were averaged across all stomata at each time point for each treatment. At least three biological replicates were measured for each treatment.

Which “accumulation of PAP in leaves” value [1] does the source give for `Nc1ncnc2c1ncn2[C@@H]1O[C@H](COP(=O)(O)O)[C@@H](OP(=O)(O)O)[C@H]1O` [PAP, 3′-phosphoadenosine 5′-phosphate] here?
Its value is “results in accumulation of PAP in leaves”.

What about the “magnitude and rate of ABA-mediated stomatal closure with added PAP” value (stomata [2]; PAP together with ABA) of the same compound?
The value was “further enhanced”.

What about the “stomatal closure in leaf peels” value (stomata [2]; leaf peels of wild type plants, 1 hr, PAP 100 μM, ABA 100 μM, cordycepin 10 μM) of the same compound?
The value was “elicited rapid stomatal closure similar to the ABA response; also recorded: nearly identical to that of ABA”.

And the “ABA responsiveness of germination in abi1-1” value (seeds; abi1-1 seeds, addition of PAP alone)?
The value was “restored ABA responsiveness in abi1-1”.

And the “seed germination / dormancy” value (seeds; wild type seeds, exogenous PAP in conjunction with exogenous ABA (1 μM) or lower GA)?
The value was “extended the dormancy of seeds; also recorded: repress germination in wild type seeds in a dose-dependent manner”.

What about the “stomatal conductance in barley” value (stomata [3]) of the same compound?
The value was “regulates stomatal conductance in barley”.

What about the ion fluxes (guard cells [4]) of the same compound?
Its ion fluxes is “mediated similar rapid changes in ion fluxes in all genotypes”.

What about the “ROS burst in guard cells” value (guard cells [5]) of the same compound?
Its value is “phenocopying of the timing and extent of the ABA-induced ROS burst”.
